Test results reported in US5801152A, “Antracycline disaccharides, process for their preparation, and pharmaceutical compositions containing them” (A. Menarini Industrie Farmaceutiche Riunite S.r.l., priority 1993, dated 1998).
In brackets after ≈: the same amount, converted by molar mass. Where a name gives a salt, the structure may show the parent alone. Read-outs that look alike come from different tables or passages of the source.

How the values were obtained:
[1] = system: human ovarian carcinoma A2780; assay: Effect against human ovarian carcinoma A2780 (in vivo), athymic mice; parameters: species or system human tumor in athymic mice; details: for toxicity deaths / tumor inhibition (Tumor Weight Inhibition %, TWI%): i.v., optimal dose: DXR 7 mg/Kg, IIa 8.5 mg/Kg (days 11, 18, 25), IIc 5 mg/Kg (days 11, 15, 18, 21, 25); for tumor inhibition (Tumor Weight Inhibition %, TWI%): determined 7-10 days after last treatment; for antitumor activity compared with doxorubicin (in words): against A2780 ovarian carcinoma
Procedure: (§1) For in vivo studies athymic mice were injected subcutaneous with tumor fragments in both flanks. Growth of tumors was followed by twice weekly caliper measurement of length and width. Tumor weight was calculated using the formula: mg=volume in mm^3 =width^2 ×length/2 (considering density=1).
(§2) The test compounds were delivered, at the optimal doses and schedules, intravenously (i.v.) to tumor-bearing mice starting at different times in the different tumors using (see experiments for details). The effects achieved by the treatments were expressed as Tumor Weight Inhibition % (TWI%) in treated versus control mice, determined 7-10 days after the last drug treatment.

[2] = system: human small cell lung carcinoma POVD; assay: Effect against human small cell lung carcinoma POVD (in vivo), athymic mice; parameters: species or system human tumor in athymic mice; details: for antitumor activity (in words): SCLC tumor POVD; for toxicity deaths / tumor inhibition (Tumor Weight Inhibition %, TWI%): i.v., optimal dose: DXR 7 mg/Kg, IIa 8.5 mg/Kg (days 10, 17, 24), IIc 5 mg/Kg (days 10, 14, 17, 21, 24); for tumor inhibition (Tumor Weight Inhibition %, TWI%): determined 7-10 days after last treatment
Procedure: as §1, §2

[3] = system: A2780 (ovarian) cells; assay: Cytotoxic activity in vitro, growth inhibition test, A2780 (ovarian); type: cell-based; details: Homo sapiens
Procedure: (§3) was tested, in comparison with doxorubicin, against a variety of human tumors of different histotypes including ovarian carcinoma, lung cancer , breast cancer, cervical carcinoma, colon cancer.
(§4) Cell survival, following test compound exposure, was evaluated by the growth inhibition test, with the exception of small cell lung cancer cell lines (SCLC). Cells in the logarithmic phase of growth were harvested and placed into 6-well. Twenty-four h after seeding, cells were exposed to test compounds for different times. After replacement with drug-free medium, cells were harvested and counted 72 h following compound exposure. In the case of SCLC, MCF-7 and LOVO, the MTT assay has been used and the colorimetric evaluation of survival was performed at the end of the incubation time (24 or 96 h). The results obtained from cytotoxicity experiments are expressed as IC50 (i.e., concentration required for 50% inhibition of cell growth).
(§5) The test compounds were dissolved in distilled water and then diluted in culture medium.

[4] = system: A431 (cervix) cells; assay: Cytotoxic activity in vitro, growth inhibition test, A431 (cervix); type: cell-based; details: Homo sapiens
Procedure: as §3, §4, §5

[5] = system: LOVO (colon) cells; assay: Cytotoxic activity in vitro, MTT assay, LOVO (colon); type: cell-based; details: Homo sapiens
Procedure: as §3, §4, §5

[6] = system: MCF-7 (breast) cells; assay: Cytotoxic activity in vitro, MTT assay, MCF-7 (breast); type: cell-based; details: Homo sapiens
Procedure: as §3, §4, §5

[7] = system: POVD (small cell lung cancer) cells; assay: Cytotoxic activity in vitro, MTT assay, POVD (small cell lung cancer); type: cell-based; details: Homo sapiens
Procedure: as §3, §4, §5

[8] = system: H-460 (non-small cell lung cancer) cells; assay: Cytotoxic activity in vitro, growth inhibition test, H-460 (non-small cell lung cancer); type: cell-based; details: Homo sapiens
Procedure: as §3, §4, §5

[9] = A2780 (ovarian), drug exposure 24 h, read-out: IC50
[10] = A-431, A431 (cervix), drug exposure 24 h, read-out: IC50
[11] = LOVO (colon), drug exposure 24 h, read-out: IC50
[12] = MCF7, MCF-7 (breast), drug exposure 24 h, read-out: IC50
[13] = POVD (small cell lung cancer), drug exposure 96 h, read-out: IC50
[14] = NCI-H460, H-460 (non-small cell lung cancer), drug exposure 24 h, read-out: IC50

For `COc1cccc2c1C(=O)c1c(O)c3c(c(O)c1C2=O)C[C@@](O)(C(=O)CO)C[C@@H]3O[C@H]1C[C@H](N)[C@H](O)[C@H](C)O1` [DXR, doxorubicin, reference compound], the toxicity deaths [1] was 0/5, the “tumor inhibition (Tumor Weight Inhibition %, TWI%)” value [1] was 68% and the “antitumor activity (in words)” value [2] was “refractory”. For the same compound, the toxicity deaths [2] was 0/5, the “tumor inhibition (Tumor Weight Inhibition %, TWI%)” value [2] was 44% and the IC50 ([3]; A2780, 24 h) was 0.03 µg/mL (≈ 0.0552 µM). It also gave an IC50 ([4]; A-431, 24 h) of 0.036 µg/mL (≈ 0.0662 µM), an IC50 ([5]; LoVo, 24 h) of 0.01 µg/mL (≈ 0.0184 µM) and an IC50 ([6]; MCF7, 24 h) of 0.01 µg/mL (≈ 0.0184 µM). The IC50 ([7]; 96 h) was 0.034 µg/mL (≈ 0.0626 µM) and the IC50 ([8]; NCI-H460, 24 h) was 0.02 µg/mL (≈ 0.0368 µM).

`CC(=O)[C@]1(O)Cc2c(O)c3c(c(O)c2[C@@H](O[C@H]2C[C@H](O)[C@H](O[C@H]4C[C@H](N)[C@H](O)[C@H](C)O4)[C@H](C)O2)C1)C(=O)c1ccccc1C3=O` [IIa, 7-0-[2,6-dideoxy-4-0-(2,3,6-trideoxy-3-amino-a-L-lyxo-exopyranosyl)-a-L-lyxo-exopyranosyl]-4-demethoxy-daunorubicinone hydrochloride] was tested, and the “antitumor activity compared with doxorubicin (in words)” value [1] was “at least the same effectiveness than doxorubicin”, the toxicity deaths [1] was 0/5 and the “tumor inhibition (Tumor Weight Inhibition %, TWI%)” value [1] was 75%. The “antitumor activity (in words)” value [2] was “very high antitumor activity”, the toxicity deaths [2] was 0/5 and the “tumor inhibition (Tumor Weight Inhibition %, TWI%)” value [2] was 80%. The IC50 [3, 9] was 0.001 µg/mL, the IC50 [4, 10] was 0.012 µg/mL and the IC50 [5, 11] was 0.0065 µg/mL. It also gave an IC50 [6, 12] of 0.01 µg/mL, an IC50 [7, 13] of 0.015 µg/mL and an IC50 [8, 14] of 0.015 µg/mL.

`C[C@@H]1O[C@@H](O[C@@H]2[C@H](C)O[C@@H](O[C@H]3C[C@](O)(C(=O)CO)Cc4c(O)c5c(c(O)c43)C(=O)c3ccccc3C5=O)C[C@@H]2O)C[C@H](O)[C@@H]1O` [IIb, 7-0-[2,6-dideoxy-4-0-(2,6-dideoxy-a-L-lyxo-exopyranosyl)-a-L-lyxo-exopyranosyl]-4-demethoxy-doxorubicinone hydrochloride] showed an IC50 [3, 9] of 0.01 µg/mL, an IC50 [4, 10] of 0.026 µg/mL and an IC50 [5, 11] of 0.0085 µg/mL. The IC50 [6, 12] was 0.015 µg/mL, the IC50 [7, 13] was 0.02 µg/mL and the IC50 [8, 14] was 0.018 µg/mL.

For `C[C@@H]1O[C@@H](O[C@@H]2[C@H](C)O[C@@H](O[C@H]3C[C@](O)(C(=O)CO)Cc4c(O)c5c(c(O)c43)C(=O)c3ccccc3C5=O)C[C@@H]2O)C[C@H](N)[C@@H]1O` [IIc, 7-0-[2,6-dideoxy-4-0-(2,3,6-trideoxy-3amino-a-L-lyxo-exopyranosyl)-a-L-lyxo-exopyranosyl]-4-demethoxy-doxorubicinone hydrochloride], the “antitumor activity compared with doxorubicin (in words)” value [1] was “antitumor activity greatly superior to that of the parent compund”, the toxicity deaths [1] was 0/5 and the “tumor inhibition (Tumor Weight Inhibition %, TWI%)” value [1] was 99%. The “antitumor activity (in words)” value [2] was “very high antitumor activity”, the toxicity deaths [2] was 0/5 and the “tumor inhibition (Tumor Weight Inhibition %, TWI%)” value [2] was 91%. The IC50 [3, 9] was 0.005 µg/mL, the IC50 [4, 10] was 0.016 µg/mL and the IC50 [5, 11] was 0.01 µg/mL. The IC50 [6, 12] was 0.0056 µg/mL, the IC50 [7, 13] was 0.011 µg/mL and the IC50 [8, 14] was 0.01 µg/mL.
